System: Bone marrow derived dendritic cells (BMDCs)
Test: In vitro screening of oleamide and analogues: cytokine secretion by LPS-stimulated BMDCs
Assay type: cell-based, Balb/c mice
Details: Table 3; BMDCs, 25 uM compound 1 hour prior to 100 ng/ml LPS, supernatants after 24 hours
Method: FIG. 2: In vitro results: Bone marrow dendritic cells (BMDCs) were cultured in vitro and plated at 1×10^6 cells per ml. The BMDCs were conditioned with 25 uM oleamide 1 hour prior to stimulation with 100 ng/ml LPS (E. coli serotype R515). After 24 hours, the supernatants were removed and analysed for cytokine levels of IL-12p40, IL-12p70, IL-23 and TNF-alpha using specific immunoassays. (n=9)
FIGS. 4(A) to 4(G): In vitro Results: Bone marrow dendritic cells (BMDCs) were cultured in vitro and plated at 1×10^6 cells/ml. The BMDCs were conditioned with oleamide or its family of analogues at a concentration of 25 uM 1 hour prior to stimulation with 100 ng/ml LPS (E. coli serotype R515). After 24 hours, the supernatants were removed and analysed for levels of IL-12p40, IL-12p70, IL-23 and TNF-alpha using specific immunoassays. (n=9)
(§1) FIG. 6: Bone marrow-derived dendritic cells (BMDCs) were cultured in vitro and plated at 1×10^6 cells/ml. The BMDCs were conditioned with analogues of oleamide (compounds 19.2, 20.1, 36.2, 37.1 or 39.1) at a concentration of 25 μM 1 hour prior to stimulation with 100 ng/ml LPS (E. coli serotype R515). After 24 hours, the supernatants were removed and analysed for levels of IL-12p40, IL-12p70, IL-23 and TNF-alpha using specific immunoassays. (n=9)
as §1, with “7:” for “6:”, “18.2, 21.2, 22.2, 23.2, 33.1” for “19.2, 20.1, 36.2, 37.1”, “34.1 in panel A and 35.1, 38.1, 50.2 in panel B)” for “39.1)”
The concentration of cytokines in cell supernatants was determined using ELISA Duoset kits from R&D Systems in accordance with the manufacturers' instructions. Briefly, 100 μl/well of capture antibody (diluted to the appropriate concentration in PBS) was added to an ELISA plate (Nunc) and incubated overnight at room temperature. Plates were then washed three times with Wash Buffer (PBS+0.05% Tween-20) and blocked by adding 300 μl of Blocking buffer (1% (w/v) BSA/PBS) for a minimum of 1 h at room temperature. The washing step was repeated and 100 μl of samples and standards (diluted to appropriate concentrations) were added per well, in triplicate. Plates were then incubated at 2-4° C. overnight. The next day, plates were washed again and 100 μl of the biotinylated detection antibody was added to each well and incubated for 2 hours at room temperature. 100 μl of Streptavidin-horseradish-peroxidase (R&D Systems) was then added to each well, following another wash step. Plates were incubated for 20 min at room temperature. After the last washing step, 100 μl of tetramethylbenzidine (BD Biosciences) was added to each well and plates were left in the dark for 20 minutes or until a blue colour developed. Colour development was stopped by adding 50 μl of 1M sulphuric acid (Sigma-Aldrich) to the wells. The optical density was determined at 450 nm, using a VersaMax™ microplate reader (Molecular Devices). For each set of samples, a standard curve was generated and the values of unknown samples were calculated from the standard curve.
Bone marrow derived dendritic cells (BMDCs) were cultured as follows:
(Day 1) Bone marrow cells were harvested from the femur and tibia of Balb/c female mice by flushing the bone with RPMI 1640 complete media [supplemented with 10% foetal calf serum and 2% Penicilin-Steptomycin (Life Technologies, Ireland)] using a 27 gauge needle attached to a 10 ml syringe. The bone marrow cells were collected into a 50-ml Falcon tube and centrifuged at 1200 RPM for 5 minutes. […]

Row | Compound | +LPS IL-12p40 | +LPS IL-12p70 | +LPS IL-23 | +LPS TNF-α
1 | CCCCCCCC/C=C\CCCCCCCC(=O)NCc1ccccc1 [Compound 18-2, N-benzyloleamide] | ↑ | ↑ | → | →
2 | CCCCCCCC/C=C\CCCCCCCC(=O)Nc1ccc(N(C)C)cc1 [Compound 19-2, N-(4-(dimethylamino)phenyl)oleamide] | → | → | → | →
3 | CCCCCCCC/C=C\CCCCCCCC(=O)Nc1ccc(N(CC)CC)cc1 [Compound 20-1, N-(4-(diethylamino)phenyl)oleamide] | → | ↓ | → | →
4 | CCCCCCCC/C=C\CCCCCCCC(=O)NCc1ccc(OC)cc1 [Compound 21-2, N-(4-methoxybenzyl) oleamide] | ↑ | ↑ | ↓ | →
5 | CCCCCCCC/C=C\CCCCCCCC(=O)NCc1cccc(OC)c1 [Compound 22-2, N-(3-methoxybenzyl) oleamide] | ↑ | ↑ | ↓ | →
6 | CCCCCCCC/C=C\CCCCCCCC(=O)NCc1ccccc1OC [Compound 23-2, N-(2-methoxybenzyl) oleamide] | ↑ | → | ↓ | →
7 | CCCCCCCC/C=C\CCCCCCCC(=O)NCc1ccc(C(F)(F)F)cc1 [Compound 33-1, N-(4-(trifluoromethyl)benzyl)oleamide] | ↑ | ↑ | → | →
8 | CCCCCCCC/C=C\CCCCCCCC(=O)NCc1cccc(C(F)(F)F)c1 [Compound 34-1, N-(3-(trifluoromethyl)benzyl)oleamide] | ↑ | → | ↓ | →
9 | CCCCCCCC/C=C\CCCCCCCC(=O)NCc1ccccc1C(F)(F)F [Compound 35-1, N-(2-(trifluoromethyl)benzyl)oleamide] | → | → | ↓ | →
10 | CCCCCCCC/C=C\CCCCCCCC(=O)Nc1ccc2ccccc2n1 [Compound 36-2, N-(quinolin-2-yl) oleamide] | ↓ | ↓ | ↓ | ↓
11 | CCCCCCCC/C=C\CCCCCCCC(=O)Nc1ccccn1 [Compound 37-1, N-(pyridin-2-yl) oleamide] | → | → | ↓ | ↓
12 | CCCCCCCC/C=C\CCCCCCCC(=O)Nc1cccnc1 [Compound 38-1, N-(pyridin-3-yl) oleamide] | ↓ | → | ↓ | →
13 | CCCCCCCC/C=C\CCCCCCCC(=O)Nc1ccncc1 [Compound 39-1, N-(pyridin-4-yl) oleamide] | ↓ | ↓ | → | →
14 | NC(=O)COCCCCOc1ccccc1 [Compound 50-2, 2-(4-phenoxybutoxy) acetamide] | → | → | ↓ | →
15 | NC(=O)COCCCOCc1ccccc1 [Compound 51-2, 2-(3-(benzyloxy)propoxy) acetamide] | ↓ | ↓ | ↓ | →
16 | CCCCCCCC/C=C\CCCCCCCC(N)=O [Ole, 9(Z)-Octadecenamide] | ↓ | ↓ | ↓ | →

Same assay, conditions: summary statement on the cytokine tables

Row | Compound | immunomodulatory effect
17 | CCCCCCCC/C=C\CCCCCCCC(N)=O [Ole, 9(Z)-Octadecenamide] | immunomodulatory effect
18 | CCCCC/C=C\C/C=C\C/C=C\C/C=C\CCCC(N)=O [arachidonamide] | immunomodulatory effect
19 | CCCCC/C=C\C/C=C\CCCCCCCC(N)=O [linoleamide] | immunomodulatory effect
20 | CC/C=C\C/C=C\C/C=C\CCCCCCCC(N)=O [linolenamide] | immunomodulatory effect
21 | CCCCCCCCCCCCCCCC(N)=O [palmitamide] | immunomodulatory effect
22 | CCCCCC/C=C\CCCCCCCC(N)=O [palmitoleamide] | immunomodulatory effect
23 | CCCCCCCCCCCCCCCCCC(N)=O [stearamide] | immunomodulatory effect

System: BV2 murine microglial cells
Test: not given
Details: lipopolysaccharide-stimulated neuronal microglia; cited from earlier work

Row | Compound | activation of p38, ERK, PI3-kinase/Akt, ROS accumulation and NF-κB activation | pro-inflammatory mediators
24 | CCCCCCCC/C=C\CCCCCCCC(N)=O [Ole, 9(Z)-Octadecenamide] | blocks activation | suppressor of pro-inflammatory mediators

— patent US20190380980A1, “A Method For Treating Peripheral Inflammatory Disease” (Dublin City University, priority 2015, published 2019)
